Where a name gives a salt, the structure may show the parent alone.
Experiments:
[1] = test system: non-segmental facial vitiligo; assay: Open-label clinical trial, topical treatment of non-segmental facial vitiligo; format: in vivo; conditions: 0.46% (w/w) topical solution twice daily; as early as 4 weeks after initiating treatment
Description: Subjects with a clinical diagnosis of new onset or actively progressing non-segmental facial vitiligo or worsening of existing facial lesions within the past 6 months were enrolled in an open-label clinical trial and treated with a 0.46% (w/w) topical solution formulation of 5-((2-((4-fluoro-3-methoxy-5-methylphenyl)amino)-5-methylpyrimidin-4-yl)amino)benzo[d]oxazol-2(3H)-one hydrochloride applied twice daily for 24 weeks by the protocol-prescribed method.
It is anticipated that the treatment will be judged to be safe and tolerable.

[2] = test system: destruction of melanocytes; assay: Harris mouse model of vitiligo (adoptive transfer of TCR transgenic T cells), in-life vitiligo scoring; format: in vivo; conditions: both doses (50 and 100 mg/kg), oral gavage QD, scored 5 weeks after initiation of dosing
Description: The primary driver of vitiligo is an autoimmune attack on melanocytes, the cells which give skin its color. The initiating event(s) for this autoimmune attack is unknown, however the key cell type driving the destruction of the melanocytes is the CD8+ cytolytic T cell (CTL). A major cytokine that drives the activation/function of these CTL is IFNy, whose receptor signals via JAK1 and JAK2. Drugs that block the function of JAK1 or JAK2 would be predicted to be efficacious in reversing the autoimmune destruction of melanocytes, and this has been confirmed with pilot studies using tofacitinib (an inhibitor of JAK3/JAK1/JAK2) and ruxolitinib (an inhibitor of JAK1/JAK2). The development of novel therapeutics for treatment of vitiligo would be facilitated by an animal model of disease that specifically recapitulates the key features of the disease (IFNγ CD8+ CTL driven destruction of melanocytes). Dr. John Harris of the University of Massachusetts Medical School has developed such a model. […] Attempted induction of disease is then accomplished using a proprietary method and is measured by the degree of melanocyte destruction. […] In FIG. 1, each symbol represents an individual animal, scored 5 weeks after initiation of dosing. Statistical significance was determined with the Student's T test.

[3] = Plasma drug levels after oral gavage in the mouse vitiligo model; format: in vivo; conditions: oral gavage QD, post dose
[4] = test system: autoimmune destruction of melanocytes; conditions: pilot studies; cited from earlier work

time plasma drug levels were above the EC50 for blockade of IFNγ signaling ([3]; 50 mg/kg)	time plasma drug levels were above the EC50 for blockade of IFNγ signaling ([3]; 100 mg/kg)	Structure (SMILES)	improvement of disease (pigmentation at lesion borders, repigmentation, Facial VASI index) [1]	efficacy in the model (vitiligo score, FIG. 1) [2]	efficacious in reversing the autoimmune destruction of melanocytes [4]
6 h	20 h	COc1cc(Nc2ncc(C)c(Nc3ccc4oc(=O)[nH]c4c3)n2)cc(C)c1F [5-((2-((4-fluoro-3-methoxy-5-methylphenyl)amino)-5-methylpyrimidin-4-yl)amino)benzo[d]oxazol-2(3H)-one hydrochloride]	early improvement in their disease	excellent efficacy	
		N#CC[C@H](C1CCCC1)n1cc(-c2ncnc3[nH]ccc23)cn1 [ruxolitinib, (R)-3-(4-(7H-pyrrolo[2,3-d]pyrimidin-4-yl)-1H-pyrazol-1-yl)-3-cyclopentylpropanenitrile]			confirmed
		C[C@@H]1CCN(C(=O)CC#N)C[C@@H]1N(C)c1ncnc2[nH]ccc12 [tofacitinib, 3-{(3R,4R)-4-methyl-3-[methyl-(7H-pyrrolo[2,3-d]pyrimidin-4-yl)-amino]-piperidin-1-yl}-3-oxo-propionitrile]			confirmed

— patent publication US20190060311A1, “COMPOSITIONS AND METHODS FOR TREATMENT OF VITILIGO” (ACLARIS THERAPEUTICS, INC., priority 2017, published 2019)
